Key:
[1] = Changes in the body weight of laboratory animals; settings: male Sprague-Dawley rats, 10-day administration; coumaric acid 100 mg/kg oral, growth hormone 20 μg/kg s.c., once daily
Experimental: Three-week-old male Sprague-Dawley rats were purchased and acclimated for three days. A breeding environment was altered to a 24-hour pattern, a light/dark cycle was maintained at 12-hour intervals, and antibiotic-free normal solid feed was used. In a control group, saline was injected. In a positive control group, Eutropin Injection (LG Bioscience Korea) was subcutaneously injected at a dose of 20 μg/kg once a day. The coumaric acid of this invention was administered to the oral cavity of all rats of a coumaric acid group, once daily.
After feeding and administering the coumaric acid to the rats for 10 days, autopsies were carried out to confirm the following content.
The measurement was carried out twice a week. The measured values were statistically analyzed to calculate mean±standard deviation.

[2] = tested on: growth hormone; test: Growth hormone levels in blood (Growth Hormone Rat ELISA Kit); type: in vivo; settings: rat serum, after 10-day administration; control group 3.97 ng/ml
Experimental: (§1) In a control group, saline was injected. […] The drug administered to each group is as follows:
To confirm whether coumaric acid affects the secretion level of the growth hormone, a growth hormone level in the blood of each rat was measured. […] The measurement of the growth hormone levels were carried out using a Growth Hormone Rat ELISA Kit (Life Technologies, KRC5311).

[3] = tested on: cartilage cells; test: Proliferation of cartilage cells in proximal tibia (BrdU staining); type: in vivo, rat; settings: rats, after 10-day administration, BrdU 30 mg/kg i.p., 2 hours before autopsy; control group 0.13%
Experimental: as §1
To confirm whether the effect of coumaric acid on bone growth is caused by the proliferation of cartilage cells, cartilage cells were observed. In Experimental Example <1-1>, after the 10-day administration was completed, rats of the experimental group and the control groups according to this invention were intraperitoneally administered with a dose of 30 mg/kg of 5-bromo-2′-deoxyuridine (BrdU) on the day of the experiment. Two hours later, autopsies were carried out to extract legs, and then the legs were stored in 4% PFA for 24 hours. Following embedding and sectioning, cartilage cells which were stained using a BrdU staining kit (Invitrogen, Carlsbad, Calif., USA) were observed.

[4] = tested on: IGF-1; test: IGF-1 protein levels in blood (IGF1 ELISA Kit); type: in vivo; settings: rat serum, after 10-day administration; control group 0.84 mg/kg
Experimental: as §1
To confirm whether coumaric acid affects the secretion levels of IGF-1, […], IGF-1 protein levels were measured. In Experimental Example <1-1>, after the 10-day administration was completed, the rats of the experimental group and the control groups according to this invention were anesthetized on the day of the experiment, and then blood was extracted therefrom using a syringe and centrifuged to obtain serum. The measurement of the IGF-1 levels was carried out using an IGF1 ELISA Kit (Abcam, ab100695).

[5] = tested on: Sprague-Dawley rats; test: Analysis of growth plate (heights of proliferative and hypertrophic zones); type: in vivo, rat; settings: after 10-day administration; for height of the proliferative zone of the growth plate: average, control group 0.77 mm; for height of the hypertrophic zone of the growth plate: control group 1.10 mm
Experimental: In a control group, saline was injected. […] To assess the growth effect of coumaric acid, the growth plate of each rat was analyzed. In Experimental Example <1-1>, after the 10-day administration was completed, right and left tibias (shinbones) were extracted from the experimental group and the control groups according to this invention, all the muscles, fat and ligaments attached to bone tissue were removed, and then the resulting specimen was stored in 70% alcohol, demineralized, and then dehydrated. Afterward, the resulting specimen was washed with xylene, and then put into a paraffin block. Subsequently, the specimen was cut to a thickness of 4 μm, and then the heights of the proliferative zone and the hypertrophic zone in the growth plate were measured using a BX50 microscope (Olympus).

[6] = tested on: Sprague-Dawley rats; test: Total tibial length by X-ray radiography; type: in vivo, rat; settings: after 10-day administration, coumaric acid 100 mg/kg oral, growth hormone 20 μg/kg s.c.
Experimental: as §1
To assess the effect of coumaric acid on growth promotion, total tibial length of rats were measured. In Experimental Example <1-1>, after the 10-day administration was completed, right and left tibias (shinbones) were extracted from the control groups and the coumaric acid-fed experimental group according to this invention, all the muscles, fat and ligaments attached to bone tissue were removed, and then the resulting specimen was stored in 70% alcohol, followed by radiographic analysis using an X-ray imaging instrument (OM-FORTE-10121, DK Medical Systems). For the analysis, 55 kV, […] X-ray sources were used. The total tibial length was measured by X-ray radiography.

| Molecule | body weight vs control group [1] | growth hormone level in blood [2] | ratio of BrdU-labeled cells with respect to total cells [3] | IGF-1 protein level [4] | height of the proliferative zone of the growth plate [5] | height of the hypertrophic zone of the growth plate [5] | total tibial length vs control group [6] |
| --- | --- | --- | --- | --- | --- | --- | --- |
| O=C(O)/C=C/c1ccc(O)cc1 [coumaric acid] | almost no difference | 7.62 ng/mL | 0.18% | 1.23 mg/kg | 0.98 mm | 1.27 mm | – |
| growth hormone: positive control: Eutropin Injection (LG Bioscience Korea), growth hormone, subcutaneously injected at 20 μg/kg once a day | – | 11.89 ng/mL | 0.18% | 1.31 mg/kg | 1.13 mm | 1.44 mm | greater than the control group |
